Assay results: PubChem BioAssay (NCI)
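Values below derive from 48-hour exposures of cells grown in 96-well plates, with endpoints linearly interpolated between the two concentrations bracketing the appropriate inhibition level. Abbreviation: GI50, concentration required for 50% inhibition of growth. TGI marks complete inhibition of growth.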

Experiments:
Experiment in all cases: DTP human tumour cell line panel, 48 h
K-562 leukemia = system: K-562 leukemia
MCF7 breast = system: MCF7 breast
786-0 renal = system: 786-0 renal
MDA-MB-231 breast = system: MDA-MB-231 breast
PC-3 prostate = system: PC-3 prostate
EKVX NSCLC = system: EKVX NSCLC
SW-620 colon = system: SW-620 colon
CAKI-1 renal = system: CAKI-1 renal
SK-MEL-2 melanoma = system: SK-MEL-2 melanoma
MDA-MB-435 = system: MDA-MB-435
SF-268 CNS = system: SF-268 CNS
RPMI-8226 leukemia = system: RPMI-8226 leukemia
SF-295 CNS = system: SF-295 CNS
IGROV1 ovarian = system: IGROV1 ovarian
COLO 205 colon = system: COLO 205 colon
SN12C renal = system: SN12C renal
UACC-62 melanoma = system: UACC-62 melanoma
OVCAR-3 ovarian = system: OVCAR-3 ovarian
SK-OV-3 ovarian = system: SK-OV-3 ovarian
OVCAR-4 ovarian = system: OVCAR-4 ovarian
T-47D breast = system: T-47D breast
U251 CNS = system: U251 CNS
UO-31 renal = system: UO-31 renal
A549 NSCLC = system: A549 NSCLC
SF-539 CNS = system: SF-539 CNS
CCRF-CEM leukemia = system: CCRF-CEM leukemia
HCT-116 colon = system: HCT-116 colon
SK-MEL-28 melanoma = system: SK-MEL-28 melanoma
BT-549 breast = system: BT-549 breast
NCI-H23 lung = system: NCI-H23 lung
UACC-257 melanoma = system: UACC-257 melanoma
SNB-75 CNS = system: SNB-75 CNS
NCI-H460 lung = system: NCI-H460 lung
HCT-15 colon = system: HCT-15 colon
RXF 393 renal = system: RXF 393 renal
HOP-92 NSCLC = system: HOP-92 NSCLC
A498 renal = system: A498 renal
SK-MEL-5 melanoma = system: SK-MEL-5 melanoma
LOX IMVI melanoma = system: LOX IMVI melanoma
HS 578T breast = system: HS 578T breast
ACHN renal = system: ACHN renal
SR leukemia = system: SR leukemia
MOLT-4 leukemia = system: MOLT-4 leukemia
NCI/ADR-RES ovarian = system: NCI/ADR-RES ovarian
KM12 colon = system: KM12 colon
M14 melanoma = system: M14 melanoma
OVCAR-8 ovarian = system: OVCAR-8 ovarian
HT29 colon = system: HT29 colon
TK-10 renal = system: TK-10 renal
HOP-62 NSCLC = system: HOP-62 NSCLC
HCC-2998 colon = system: HCC-2998 colon
HL-60(TB) leukemia = system: HL-60(TB) leukemia
NCI-H522 lung = system: NCI-H522 lung
NCI-H226 lung = system: NCI-H226 lung
DU-145 prostate = system: DU-145 prostate
OVCAR-5 ovarian = system: OVCAR-5 ovarian
SNB-19 CNS = system: SNB-19 CNS

CC1(C)CCC(c2ccc(Cl)cc2)=C(CN2CCN(c3ccc(C(=O)NS(=O)(=O)c4ccc(N[C@H](CCN5CCOCC5)CSc5ccccc5)c(S(=O)(=O)C(F)(F)F)c4)cc3)CC2)C1
GI50 (K-562 leukemia): 2450 nM | TGI (K-562 leukemia): 8020 nM | GI50 (MCF7 breast): 2110 nM | TGI (MCF7 breast): 5510 nM | GI50 (786-0 renal): 1880 nM | TGI (786-0 renal): 3400 nM | GI50 (MDA-MB-231 breast): 642 nM | TGI (MDA-MB-231 breast): 2170 nM | GI50 (PC-3 prostate): 1680 nM | TGI (PC-3 prostate): 4500 nM | GI50 (EKVX NSCLC): 1430 nM | TGI (EKVX NSCLC): 3240 nM | GI50 (SW-620 colon): 1790 nM | TGI (SW-620 colon): 3800 nM | GI50 (CAKI-1 renal): 1720 nM | TGI (CAKI-1 renal): 4090 nM | GI50 (SK-MEL-2 melanoma): 1860 nM | TGI (SK-MEL-2 melanoma): 4350 nM | GI50 (MDA-MB-435): 1640 nM | TGI (MDA-MB-435): 3170 nM | GI50 (SF-268 CNS): 2310 nM | TGI (SF-268 CNS): 5550 nM | GI50 (RPMI-8226 leukemia): 342 nM | TGI (RPMI-8226 leukemia): 4330 nM | GI50 (SF-295 CNS): 1520 nM | TGI (SF-295 CNS): 3200 nM | GI50 (IGROV1 ovarian): 2370 nM | TGI (IGROV1 ovarian): 5250 nM | GI50 (COLO 205 colon): 1240 nM | TGI (COLO 205 colon): 2680 nM | GI50 (SN12C renal): 1530 nM | TGI (SN12C renal): 3330 nM | GI50 (UACC-62 melanoma): 1430 nM | TGI (UACC-62 melanoma): 2920 nM | GI50 (OVCAR-3 ovarian): 1620 nM | TGI (OVCAR-3 ovarian): 3000 nM | GI50 (SK-OV-3 ovarian): 1280 nM | TGI (SK-OV-3 ovarian): 2680 nM | GI50 (OVCAR-4 ovarian): 1220 nM | TGI (OVCAR-4 ovarian): 2520 nM | GI50 (T-47D breast): 2050 nM | TGI (T-47D breast): 5250 nM | GI50 (U251 CNS): 1900 nM | TGI (U251 CNS): 3430 nM | GI50 (UO-31 renal): 1740 nM | TGI (UO-31 renal): 3210 nM | GI50 (A549 NSCLC): 1730 nM | TGI (A549 NSCLC): 3580 nM | GI50 (SF-539 CNS): 2080 nM | TGI (SF-539 CNS): 4220 nM | GI50 (CCRF-CEM leukemia): 61.8 nM | TGI (CCRF-CEM leukemia): 7430 nM | GI50 (HCT-116 colon): 1690 nM | TGI (HCT-116 colon): 3110 nM | GI50 (SK-MEL-28 melanoma): 1740 nM | TGI (SK-MEL-28 melanoma): 3220 nM | GI50 (BT-549 breast): 1960 nM | TGI (BT-549 breast): 3600 nM | GI50 (NCI-H23 lung): 1740 nM | TGI (NCI-H23 lung): 3960 nM | GI50 (UACC-257 melanoma): 1630 nM | TGI (UACC-257 melanoma): 3400 nM | GI50 (SNB-75 CNS): 2050 nM | TGI (SNB-75 CNS): 4160 nM | GI50 (NCI-H460 lung): 1870 nM | TGI (NCI-H460 lung): 3710 nM | GI50 (HCT-15 colon): 2020 nM | TGI (HCT-15 colon): 4350 nM | GI50 (RXF 393 renal): 322 nM | TGI (RXF 393 renal): 1940 nM | GI50 (HOP-92 NSCLC): 45.5 nM | TGI (HOP-92 NSCLC): 245 nM | GI50 (A498 renal): 19.1 nM | TGI (A498 renal): 115 nM | GI50 (SK-MEL-5 melanoma): 1570 nM | TGI (SK-MEL-5 melanoma): 2930 nM | GI50 (LOX IMVI melanoma): 1400 nM | TGI (LOX IMVI melanoma): 2740 nM | GI50 (HS 578T breast): 2660 nM | TGI (HS 578T breast): > 24500 nM | GI50 (ACHN renal): 1720 nM | TGI (ACHN renal): 3140 nM | GI50 (SR leukemia): 2340 nM | TGI (SR leukemia): > 25900 nM | GI50 (MOLT-4 leukemia): 124 nM | GI50 (NCI/ADR-RES ovarian): 3200 nM | TGI (NCI/ADR-RES ovarian): 11700 nM | GI50 (KM12 colon): 1720 nM | TGI (KM12 colon): 3420 nM | GI50 (M14 melanoma): 1830 nM | TGI (M14 melanoma): 3380 nM | GI50 (OVCAR-8 ovarian): 2190 nM | TGI (OVCAR-8 ovarian): 5180 nM | GI50 (HT29 colon): 1910 nM | TGI (HT29 colon): 3970 nM | GI50 (TK-10 renal): 1280 nM | TGI (TK-10 renal): 2670 nM | GI50 (HOP-62 NSCLC): 1730 nM | TGI (HOP-62 NSCLC): 3260 nM | GI50 (HCC-2998 colon): 343 nM | TGI (HCC-2998 colon): 1670 nM | GI50 (HL-60(TB) leukemia): 568 nM | TGI (HL-60(TB) leukemia): 3840 nM | GI50 (NCI-H522 lung): 1890 nM | TGI (NCI-H522 lung): 5030 nM | GI50 (NCI-H226 lung): 1620 nM | TGI (NCI-H226 lung): 3130 nM | GI50 (DU-145 prostate): 2760 nM | TGI (DU-145 prostate): 7120 nM | GI50 (OVCAR-5 ovarian): 1850 nM | TGI (OVCAR-5 ovarian): 4050 nM | GI50 (SNB-19 CNS): 2680 nM | TGI (SNB-19 CNS): 9140 nM
